Laboratory results taken from patent US9023789B2, “Amylin analogs and pharmaceutical compositions thereof” (Novo Nordisk A/S, priority 2012, dated 2015).
Where two headings read alike, the source gives them in different places. Numbered stars: 1 amine (or outer) side, 2 acyl side, 3 side chain; on linkers, the order of the positions; unused ones are H or OH. Bridge positions count the residues as written; N and C are the ends. Side chains are listed from the residue outwards. Peptide text beside a SMILES is read from it. * marks the point of attachment. C20 diacid = O=C(O)CCCCCCCCCCCCCCCCCCC(=O)*; γGlu = O=C(O)[C@H](CCC(=O)[*:2])N[*:1]

Key:
[1] = ASSAY (IV) determination of solubility; assay type: physicochemical
In short: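 Polypeptide stock in water ([…]) was mixed 1:1 with 100 mM buffers: glycylglycine at pH 3.0, 4.0, 5.0 and bistrispropane at pH 6.0, 6.5, 7.0, 7.5, 8.0. After 18 hours at room temperature, samples were centrifuged and polypeptide concentration measured by UPLC.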

[2] = target: T1, human amylin 3(a) receptor (human calcitonin receptor + RAMP-3) in BHK570 cells (Homo sapiens, UniProt O60896+P30988); assay: ASSAY (II)a functional assay, human amylin receptor (CRE luciferase); assay type: cell-based; conditions: for EC50: human amylin receptor functional potency, assay (II), read-out: hAmylin-R funct. EC50
T1 construct: expressed in transfected cells
In short: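 BHK CRE-luc cells, calcitonin (a) receptor ± RAMP-3 (amylin 3(a)); overnight seeding, 37° C/5% CO2. 3 h ligand exposure, DMEM/10% FBS/10 mM Hepes pH 7.4. LucLite 30 min RT; luminescence (SPC).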

[3] = target: T2, rat amylin receptor (rat calcitonin receptor + rat RAMP 3) (Rattus norvegicus, UniProt P32214+Q9JJ73); assay: ASSAY (VI) binding to the rat amylin receptor; conditions: for IC50: binding to rat amylin receptor, read-out: rAmylin-R bind IC50
T2 construct: expressed in transfected cells; host or cells: BHK tk'ts 13 (transient, FuGENE 6), membranes
T2 sequence (P32214 25-479 isoform P32214-2 limits assumed): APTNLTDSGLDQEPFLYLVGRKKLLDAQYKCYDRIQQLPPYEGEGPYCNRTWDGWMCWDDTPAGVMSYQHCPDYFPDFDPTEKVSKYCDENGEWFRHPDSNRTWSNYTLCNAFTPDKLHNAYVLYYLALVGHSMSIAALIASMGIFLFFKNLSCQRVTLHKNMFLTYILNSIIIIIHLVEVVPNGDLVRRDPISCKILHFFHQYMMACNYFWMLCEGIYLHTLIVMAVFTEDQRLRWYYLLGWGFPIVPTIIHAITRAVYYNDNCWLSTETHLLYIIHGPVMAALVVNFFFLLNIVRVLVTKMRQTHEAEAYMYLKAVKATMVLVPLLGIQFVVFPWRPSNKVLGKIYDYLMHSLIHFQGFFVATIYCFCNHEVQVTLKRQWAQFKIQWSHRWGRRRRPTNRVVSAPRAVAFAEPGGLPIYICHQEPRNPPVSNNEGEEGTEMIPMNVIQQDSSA
T2 sequence (Q9JJ73 23-147 partner): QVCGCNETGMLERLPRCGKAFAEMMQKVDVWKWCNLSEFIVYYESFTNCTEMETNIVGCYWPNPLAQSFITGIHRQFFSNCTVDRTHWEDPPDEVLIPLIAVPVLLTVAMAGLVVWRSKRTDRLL
In short: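 This assay measured binding to the rat amylin receptor. BHK tk′ts 13 cells were transiently transfected with the rat calcitonin receptor using FuGENE® 6 (Roche), following the manufacturer's recommendations. About 48 hours after transfection, the cells were harvested and membranes were prepared from them for the binding determination.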

[4] = target: T3, human amylin receptor (membranes from Amylin 3(a)/CRE-luc cells) (Homo sapiens, UniProt O60896+P30988); assay: ASSAY (V) binding to the human amylin receptor (SPA, 125I-rat amylin); conditions: for IC50: Table 4, read-out: hAmylin-R bind IC50;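 as to all read-outs here: competition binding of cell membranes (35 ng/µL) mixed with SPA beads in 384-well plates at 40 µL total volume, read by scintillation counting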
T3 construct: expressed in transfected cells
T3 sequence (P30988 25-474): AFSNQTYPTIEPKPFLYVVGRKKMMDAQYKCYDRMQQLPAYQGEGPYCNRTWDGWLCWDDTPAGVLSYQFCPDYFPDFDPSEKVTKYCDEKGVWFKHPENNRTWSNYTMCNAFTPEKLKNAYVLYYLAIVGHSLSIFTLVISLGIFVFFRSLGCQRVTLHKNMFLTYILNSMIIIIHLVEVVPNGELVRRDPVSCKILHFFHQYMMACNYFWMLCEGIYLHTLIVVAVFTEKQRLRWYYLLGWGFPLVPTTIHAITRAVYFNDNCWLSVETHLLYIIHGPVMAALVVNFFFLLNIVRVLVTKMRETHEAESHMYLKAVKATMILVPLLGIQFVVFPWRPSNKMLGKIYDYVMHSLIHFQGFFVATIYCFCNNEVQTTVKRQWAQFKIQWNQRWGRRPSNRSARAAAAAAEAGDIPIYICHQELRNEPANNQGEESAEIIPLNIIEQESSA
T3 sequence (O60896 24-148 partner): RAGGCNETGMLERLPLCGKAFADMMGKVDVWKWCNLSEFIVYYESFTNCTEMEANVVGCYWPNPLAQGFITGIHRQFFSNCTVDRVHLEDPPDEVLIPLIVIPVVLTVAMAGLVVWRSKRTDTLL

rat calcitonin receptor = target: T4, rat calcitonin receptor (Rattus norvegicus, UniProt P32214); assay: ASSAY (VIII) binding to the rat calcitonin receptor; conditions: Table 7, read-out: rCTR bind IC50
T4 construct: expressed in transfected cells; host or cells: BHK tk'ts 13 (transient, FuGENE 6), membranes
T4 sequence (P32214 25-479 isoform P32214-2 limits assumed): T2 sequence (P32214 25-479 isoform P32214-2 limits assumed)
In short: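 Transfect BHK tk′ts 13 cells transiently with rat calcitonin receptor, culture in DMEM containing 10% FBS, collect cells about 48 hours later, then prepare membranes.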

[5] = bistrispropane buffer, pH 6.5, read-out: Solubility pH 6.5 Concentration
[6] = bistrispropane buffer, pH 7.5, read-out: Solubility pH 7.5 Concentration
[7] = bistrispropane buffer, pH 6.0, read-out: Solubility pH 6.0 Concentration
[8] = bistrispropane buffer, pH 7.0, read-out: Solubility pH 7.0 Concentration
[9] = bistrispropane buffer, pH 8.0, read-out: Solubility pH 8.0 Concentration
[10] = glycylglycine buffer, pH 3.0, read-out: Solubility pH 3.0 Concentration
[11] = glycylglycine buffer, pH 4.0, read-out: Solubility pH 4.0 Concentration
[12] = glycylglycine buffer, pH 5.0, read-out: Solubility pH 5.0 Concentration
[13] = hCTR funct. EC50 divided by hAmylin-R funct. EC50
[14] = hCTR funct. EC50 over hAmylin-R funct. EC50
[15] = human functional selectivity: hCTR funct. EC50 / hAmylin-R funct. EC50
[16] = Table 7, rat binding selectivity, rCTR IC50 / rAmylin-R IC50
[17] = Table 7a (preferred compounds), rat binding selectivity, rCTR IC50 / rAmylin-R IC50
[18] = ratio of rCTR bind IC50 to rAmylin-R bind IC50
[19] = Table 5, selectivity, hCTR bind IC50 / hAmylin-R bind IC50
[20] = Table 5a, selectivity, hCTR bind IC50 / hAmylin-R bind IC50
[21] = Table 7, human binding selectivity, included for comparison
[22] = Table 7a (preferred compounds), human binding selectivity, included for comparison
[23] = ratio of human calcitonin receptor binding IC50 to human amylin receptor binding IC50

Row | solubility at 18 h [1, 5] [µM] | solubility at 18 h [1, 6] [µM] | solubility at 18 h [1, 7] [µM] | solubility at 18 h [1, 8] [µM] | solubility at 18 h [1, 9] [µM] | solubility at 18 h [1, 10] [µM] | solubility at 18 h [1, 11] [µM] | solubility at 18 h [1, 12] [µM] | Ratio hCT/hAmylin funct. [2, 13] | Ratio hCT/hAmylin funct. [2, 14] | EC50 [2] [nM] | Ratio hCT/hAmylin funct. [2, 15] | IC50 ([3]; Table 7) [nM] | Ratio rCT/rAmylin binding [3, 16] | Ratio rCT/rAmylin binding [3, 17] | Ratio rCT/rAmylin binding [3, 18] | IC50 [4] [nM] | Ratio hCT/hAmylin binding [4, 19] | Ratio hCT/hAmylin binding [4, 20] | Ratio hCT/hAmylin binding [4, 21] | SMILES | other results
1 | ≥ 200 | ≥ 200 | ≥ 200 | ≥ 200 | ≥ 200 | ≥ 200 | ≥ 200 | ≥ 200 | 10.6 | 10.6 | 0.703 | 10.6 | 2.86 | 158.2 | 158.2 | 158.2 | 0.957 | 14.7 | 14.7 | 14.7 | CC[C@H](C)[C@H](NC(=O)[C@H](C)NC(=O)CNC(=O)[C@H](Cc1ccccc1)NC(=O)[C@H](CC(N)=O)NC(=O)[C@@H]1CCCN1C(=O)[C@H](CO)NC(=O)[C@H](CO)NC(=O)[C@H](Cc1c[nH]cn1)NC(=O)[C@H](CCCNC(=N)N)NC(=O)[C@H](CC(C)C)NC(=O)[C@H](Cc1ccccc1)NC(=O)[C@H](CCC(=O)O)NC(=O)[C@H](C)NC(=O)[C@H](CC(C)C)NC(=O)[C@H](CCCNC(=N)N)NC(=O)[C@H](CCC(N)=O)NC(=O)[C@@H](NC(=O)[C@H](C)NC(=O)[C@@H]1CSSC[C@H](NC(=O)[C@@H](N)CCCCNC(=O)CC[C@H](NC(=O)CC[C@H](NC(=O)CCCCCCCCCCCCCCCCCCC(=O)O)C(=O)O)C(=O)O)C(=O)N[C@@H](CC(N)=O)C(=O)N[C@@H]([C@@H](C)O)C(=O)N[C@@H](C)C(=O)N[C@@H]([C@@H](C)O)C(=O)N1)[C@@H](C)O)C(=O)N1CCC[C@H]1C(=O)N[C@@H](CO)C(=O)N[C@@H](CO)C(=O)N[C@H](C(=O)N[C@@H](CC(N)=O)C(=O)N[C@H](C(=O)NCC(=O)N[C@@H](CCCNC(=N)N)C(=O)N[C@@H](CCC(=O)O)C(=O)N[C@H](C(=O)N[C@@H](Cc1ccc(O)cc1)C(N)=O)[C@@H](C)O)C(C)C)[C@@H](C)O [Example 105] (H-K([γGlu-γGlu-C20 diacid])CNTATCATQRLAEFLRHSSPNFGAIPSSTNVGRETY-NH2; disulfide 2-7; N-terminus assumed) | Ratio hCT/hAmylin binding [4, 22]: 14.7; Ratio hCT/hAmylin binding [4, 23]: 14.7; IC50 (rat calcitonin receptor): 452 nM
2 | ≥ 200 | ≥ 200 | ≥ 200 | ≥ 200 | ≥ 200 | ≥ 200 | ≥ 200 | ≥ 200 | 9.2 | 9.2 | 0.22 | 9.2 | 1.22 | 44.9 | 44.9 | 44.9 | 0.61 | 20.5 | 20.5 | 20.5 | CC[C@H](C)[C@H](NC(=O)[C@H](C)NC(=O)CNC(=O)[C@H](Cc1ccccc1)NC(=O)[C@H](CC(N)=O)NC(=O)[C@@H]1CCCN1C(=O)[C@H](CO)NC(=O)[C@H](CO)NC(=O)[C@H](Cc1c[nH]cn1)NC(=O)[C@H](CCCNC(=N)N)NC(=O)[C@H](CC(C)C)NC(=O)[C@H](Cc1ccccc1)NC(=O)[C@H](CC(N)=O)NC(=O)[C@H](C)NC(=O)[C@H](CC(C)C)NC(=O)[C@H](CCCNC(=N)N)NC(=O)[C@H](CCC(N)=O)NC(=O)[C@@H](NC(=O)[C@H](C)NC(=O)[C@@H]1CSSC[C@H](NC(=O)[C@H](CCCCN)NC(=O)CC[C@H](NC(=O)CCCCCCCCCCCCCCCCCCC(=O)O)C(=O)O)C(=O)N[C@@H](CC(N)=O)C(=O)N[C@@H]([C@@H](C)O)C(=O)N[C@@H](C)C(=O)N[C@@H]([C@@H](C)O)C(=O)N1)[C@@H](C)O)C(=O)N1CCC[C@H]1C(=O)N[C@@H](CO)C(=O)N[C@@H](CO)C(=O)N[C@H](C(=O)N1CCC[C@H]1C(=O)N[C@H](C(=O)NCC(=O)N[C@@H](CO)C(=O)N[C@@H](CCC(=O)O)C(=O)N[C@H](C(=O)N[C@@H](Cc1ccc(O)cc1)C(N)=O)[C@@H](C)O)C(C)C)[C@@H](C)O [Example 28] ({C20 diacid-γGlu}-KCNTATCATQRLANFLRHSSPNFGAIPSSTPVGSETY-NH2; disulfide 2-7 (inferred)) | Ratio hCT/hAmylin binding ([4]; Table 5b, selectivity, hCTR bind IC50 / hAmylin-R bind IC50): 20.5; Ratio hCT/hAmylin binding ([4]; Table 5c, selectivity, hCTR bind IC50 / hAmylin-R bind IC50): 20.5; Ratio hCT/hAmylin binding [4, 22]: 20.5; Ratio hCT/hAmylin binding [4, 23]: 20.5; IC50 (rat calcitonin receptor): 54.9 nM
